Results from patent US20260083865A1, “PROSTATE SPECIFIC MEMBRANE ANTIGEN (PSMA) LIGANDS AND USE THEREOF” (priority 2022, published 2026).
Where two headings read alike, the source gives them in different places. Numbered stars: 1 amine (or outer) side, 2 acyl side, 3 side chain; on linkers, the order of the positions; unused ones are H or OH. Bridge positions count the residues as written; N and C are the ends. Square brackets hold non-standard residues; d marks the D form. Side chains are listed from the residue outwards. Peptide text beside a SMILES is read from it. * marks the point of attachment. TtdsdLys(DOTA)NH2 = NC(=O)[C@@H](CCCCNC(=O)CN1CCN(CC(=O)O)CCN(CC(=O)O)CCN(CC(=O)O)CC1)NC(=O)CCC(=O)NCCCOCCOCCOCCCN*; X2 = O=C(O)CN1CCN(CC(=O)O)CCN([C@H](CCC(=O)*)C(=O)O)CCN(CC(=O)O)CC1; DOTA = O=C(O)CN1CCN(CC(=O)O)CCN(CC(=O)*)CCN(CC(=O)O)CC1; Phe(4-Cl) = N[C@@H](Cc1ccc(Cl)cc1)C(=O)O; Ethylenediamine = C(CN[*:2])N[*:1]; X1 = O=C(CC1CCN([*:1])CC1)[*:2]; Aad = N[C@@H](CCCC(=O)O)C(=O)O; Cit = NC(=O)NCCC[C@H](N)C(=O)O; Tle = CC(C)(C)[C@H](N)C(=O)O; 4Amb = NCc1ccc(C(=O)O)cc1; Hexanoyl = CCCCCC(=O)*; Aib = CC(C)(N)C(=O)O; CO = O=C([*:1])[*:2]; βAla = NCCC(=O)O

Tests used:
[1] = target: T1, PSMA-expressing C4-2 cells (Homo sapiens, UniProt Q04609); assay: FACS binding assay (competition with 50 nM PSM-0183); details: read-out: pIC50 [C4-2] CAT (converted)
T1 construct: PSMA-expressing C4-2 cells (ATCC, Cat. No. CRL-3314) were cultured in RPMI-1640; host or cells: C4-2 cells
Method in brief: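 C4-2 cells were incubated 1 h at 4 °C with 50 nM AF488-labelled peptide PSM-0183 plus increasing test compound concentrations, then washed twice in ice-cold buffer. Median fluorescence in the AF488 channel was read by flow cytometry. IC50/pIC50 was derived by 4PL fitting of MFI versus concentration.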

[2] = target: T2, Fc-fusion protein of human PSMA (hPSMA-Fc) (Homo sapiens, UniProt Q04609); assay: Surface plasmon resonance assay (Biacore T200, single cycle kinetic); assay type: binding; details: read-out: pKD CAT (converted)
T2 construct: purchased Acro Biosystems PSA-H5264
Method in brief: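 hPSMA-Fc was captured (~1000 RU) on an Fc-binding-peptide CM5 chip, and compounds were run in single cycle kinetic mode at 25° C in HBST with 0.1% DMSO. Double-blank-corrected sensorgrams were fitted to a 1:1 Langmuir model to give KD, reported as pKD.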

[3] = system: PC3-PIP tumor model; design: species or system mice; details: mouse, in vivo
Excerpt: Radioactively labeled compounds can be detected by imaging methods such as SPECT and PET. Furthermore, the data acquired by such techniques can be confirmed by direct measurement of radioactivity contained in the individual organs prepared from an animal injected with a radioactively labeled compound of the disclosure. Thus, the biodistribution (the measurement of radioactivity in individual organs) of a radioactively labeled compound can be determined and analyzed. […] All animal experiments were conducted in compliance with the German animal protection laws. Male swiss or NMRI nude mice (6-8 weeks old, Janvier Labs, France) were inoculated with 5×10^6 PC3-PIP cells in the right shoulder. For selected compounds an additional model was used, here male NMRI nude mice (6-8 weeks old, Janvier Labs, France) were inoculated with 5×10^6 or/1×10^7 C4-2 cells in the right shoulder. When tumors reached an appropriate size, the mice received ˜30 MBq ^111In-labeled compounds of the disclosure (diluted to 100 μL with PBS) administered intravenously via the tail vein. Images were obtained on a NanoSPECT/computed tomography system (Mediso Medical Imaging Systems, Budapest, Hungary) using exemplarily the following acquisition and reconstruction parameters (Table 10). [table] Imaging data were saved as DICOM files and analysed using VivoQuant™ software (Invicro, Boston, USA). In brief, regions of interest (ROIs) were drawn based on computed tomography images for the relevant organs and tissue regions such as heart (estimate of blood pool, bps), kidney, and tumor. The resulting numeric data expressed as a percentage of injected dose per gram of tissue (% ID/g) are presented in FIGS. 3(a)-3(ii) for the PC3-PIP model and FIGS. 4(a)-4(r) for the C4-2 model. Bars show mean % ID/g values of two to three animals per time point. Error bars indicate the value range (minimum and maximum values).

[4] = pIC50 category of FACS binding, C4-2 cells
[5] = pKD category for PSMA SPR activity assay, hPSMA-Fc, 25° C.
[6] = FACS binding, PSMA-expressing C4-2 cells, pIC50 category
[7] = PSMA SPR assay, hPSMA-Fc, 25° C., pKD category
[8] = FACS binding, C4-2 cells, category

T1 sequence (Q04609 whole entry): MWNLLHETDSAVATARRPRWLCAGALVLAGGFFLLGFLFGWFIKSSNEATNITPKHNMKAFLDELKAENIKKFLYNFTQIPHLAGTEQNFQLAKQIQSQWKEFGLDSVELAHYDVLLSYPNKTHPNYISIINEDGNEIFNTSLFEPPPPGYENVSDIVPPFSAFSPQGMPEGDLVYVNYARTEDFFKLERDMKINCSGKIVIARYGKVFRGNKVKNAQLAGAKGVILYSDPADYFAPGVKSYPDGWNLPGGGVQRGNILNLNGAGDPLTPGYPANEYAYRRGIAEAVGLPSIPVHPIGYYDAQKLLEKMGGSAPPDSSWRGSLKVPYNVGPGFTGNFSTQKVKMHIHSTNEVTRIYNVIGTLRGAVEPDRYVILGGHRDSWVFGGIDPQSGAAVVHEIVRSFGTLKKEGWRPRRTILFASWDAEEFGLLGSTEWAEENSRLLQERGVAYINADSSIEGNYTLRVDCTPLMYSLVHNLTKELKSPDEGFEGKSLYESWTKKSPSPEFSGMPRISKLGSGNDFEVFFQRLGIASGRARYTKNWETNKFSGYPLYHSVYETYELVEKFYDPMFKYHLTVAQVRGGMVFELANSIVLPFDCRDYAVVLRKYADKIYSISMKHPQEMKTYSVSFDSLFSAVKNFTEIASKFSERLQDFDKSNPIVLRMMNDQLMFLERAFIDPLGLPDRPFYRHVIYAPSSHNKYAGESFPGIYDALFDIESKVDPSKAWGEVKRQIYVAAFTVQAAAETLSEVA
T2 sequence (Q04609 44-750 limits assumed): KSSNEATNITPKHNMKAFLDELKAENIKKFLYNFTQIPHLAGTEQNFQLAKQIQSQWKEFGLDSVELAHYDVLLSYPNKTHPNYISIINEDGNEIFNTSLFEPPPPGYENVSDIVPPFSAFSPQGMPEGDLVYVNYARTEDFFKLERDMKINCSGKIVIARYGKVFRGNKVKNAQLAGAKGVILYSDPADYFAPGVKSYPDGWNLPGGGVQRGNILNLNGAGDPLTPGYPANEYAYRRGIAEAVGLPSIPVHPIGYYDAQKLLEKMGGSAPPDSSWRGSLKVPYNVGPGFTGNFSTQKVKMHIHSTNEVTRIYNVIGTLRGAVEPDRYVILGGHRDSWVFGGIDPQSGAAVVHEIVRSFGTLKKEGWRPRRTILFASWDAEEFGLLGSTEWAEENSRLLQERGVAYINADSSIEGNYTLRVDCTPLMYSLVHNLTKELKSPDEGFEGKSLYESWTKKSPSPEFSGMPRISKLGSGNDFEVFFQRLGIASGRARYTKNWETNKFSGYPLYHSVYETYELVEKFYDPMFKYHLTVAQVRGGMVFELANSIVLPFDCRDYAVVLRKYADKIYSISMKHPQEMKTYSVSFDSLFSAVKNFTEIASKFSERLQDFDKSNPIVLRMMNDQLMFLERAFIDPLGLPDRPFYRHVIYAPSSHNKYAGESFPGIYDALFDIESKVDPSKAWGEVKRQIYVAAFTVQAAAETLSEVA

Row | SMILES | IC50 [1, 4] | Kd [2, 5] | AUC ratio [T/K] [3] | Tumor AUC [3] | IC50 [1, 6] | Kd [2, 7] | IC50 [1, 8] | Kd ([2]; PSMA SPR assay, category)
1 | C[C@@H](O)[C@H](NC(=O)CC1CCN(C(=O)CN2CCN(CC(=O)O)CCN(CC(=O)O)CCN(CC(=O)O)CC2)CC1)C(=O)NC(C)(C)C(=O)N[C@@H](Cc1ccc(Cl)cc1)C(=O)N[C@H]1CSSC[C@@H](C(=O)N[C@H](C(=O)NCCC(N)=O)C(C)(C)C)NC(=O)[C@H](CC(N)=O)NC(=O)C(C)(C)NC(=O)[C@H](CCCNC(=N)N)NC(=O)[C@H](CCCCN)NC1=O [PSM-0467, DOTA-Cmp-Thr-Aib-Pcf-[Cys-Lys-Arg-Aib-Asn-Cys]-Tle-Bal-NH2] ({DOTA}-[X1]T[Aib][Phe(4-Cl)]CKR[Aib]NC[Tle][βAla]-NH2; disulfide 5-10) | < 200 nM | < 12.6 nM | 1.3 | 280 % ID/g*h |  |  |  | 
2 | C[C@@H](O)[C@H](NC(=O)[C@@H](NC(=O)[C@@H]1CSSC[C@H](NC(=O)[C@H](Cc2ccc(Cl)cc2)NC(=O)C(C)(C)NC(=O)[C@@H](NC(=O)CC2CCN(C(=O)CN3CCN(CC(=O)O)CCN(CC(=O)O)CCN(CC(=O)O)CC3)CC2)[C@@H](C)O)C(=O)N[C@@H](CCCCN)C(=O)N[C@@H](CCCC(N)=O)C(=O)NC(C)(C)C(=O)N[C@@H](CC(N)=O)C(=O)N1)C(C)(C)C)C(N)=O [PSM-0531, DOTA-Cmp-Thr-Aib-Pcf-[Cys-Lys-Hgn-Aib-Asn-Cys]-Tle-Thr-NH2] ({DOTA}-[X1]T[Aib][Phe(4-Cl)]CK[Aad](NH2)[Aib]NC[Tle]T-NH2; disulfide 5-10) | < 200 nM | < 12.6 nM | 1.6 | 120 % ID/g*h |  |  |  | 
3 | CC(=O)N[C@H](C(=O)NC(C)(C)C(=O)N[C@@H](Cc1ccccc1)C(=O)N[C@H]1CSSC[C@@H](C(=O)N[C@H](C(=O)N[C@H](C(=O)N2CCC(CC(=O)N[C@H](CCCCNC(=O)CC[C@H](C(=O)O)N3CCN(CC(=O)O)CCN(CC(=O)O)CCN(CC(=O)O)CC3)C(N)=O)CC2)[C@@H](C)O)C(C)(C)C)NC(=O)[C@H](CC(N)=O)NC(=O)C(C)(C)NC(=O)[C@H](CCCNC(=N)N)NC(=O)[C@H](CCCCN)NC1=O)[C@@H](C)O [PSM-0339, Ac-Thr-Aib-Phe-[Cys-Lys-Arg-Aib-Asn-Cys]-Tle-Thr-Cmp-lys (DOTAGA)-NH2] (Ac-T[Aib]FCKR[Aib]NC[Tle]T[X1][dK](X2)-NH2; disulfide 4-9) |  |  | 1.2 | 160 % ID/g*h | < 200 nM | < 12.6 nM |  | 
4 | C[C@@H](O)[C@H](NC(=O)[C@@H](NC(=O)[C@@H]1CSSC[C@H](NC(=O)[C@H](Cc2ccc(Cl)cc2)NC(=O)C(C)(C)NC(=O)[C@@H](NC(=O)CC2CCN(C(=O)CN3CCN(CC(=O)O)CCN(CC(=O)O)CCN(CC(=O)O)CC3)CC2)[C@@H](C)O)C(=O)N[C@@H](CCCCN)C(=O)N[C@@H](CCCNC(N)=O)C(=O)NC(C)(C)C(=O)N[C@@H](CC(N)=O)C(=O)N1)C(C)(C)C)C(N)=O [PSM-0365, DOTA-Cmp-Thr-Aib-Pcf-[Cys-Lys-Cit-Aib-Asn-Cys]-Tle-Thr-NH2] ({DOTA}-[X1]T[Aib][Phe(4-Cl)]CK[Cit][Aib]NC[Tle]T-NH2; disulfide 5-10) | < 200 nM | < 12.6 nM | 1.6 | 140 % ID/g*h |  |  |  | 
5 | CCCCCC(=O)N[C@H](C(=O)NC(C)(C)C(=O)N[C@@H](Cc1ccccc1)C(=O)N[C@H]1CSSC[C@@H](C(=O)N[C@H](C(=O)N[C@H](C(=O)N[C@@H](CC(=O)O)C(=O)NCCCOCCOCCOCCCNC(=O)CCC(=O)N[C@H](CCCCNC(=O)CN2CCN(CC(=O)O)CCN(CC(=O)O)CCN(CC(=O)O)CC2)C(N)=O)[C@@H](C)O)C(C)(C)C)NC(=O)[C@H](CC(N)=O)NC(=O)C(C)(C)NC(=O)[C@H](CCCNC(=N)N)NC(=O)[C@H](CCCCN)NC1=O)[C@@H](C)O [PSM-0425, Hex-Thr-Aib-Phe-[Cys-Lys-Arg-Aib-Asn-Cys]-Tle-Thr-Asp-Ttds-lys(DOTA)-NH2] (Hexanoyl-T[Aib]FCKR[Aib]NC[Tle]TD-{TtdsdLys(DOTA)NH2}; disulfide 4-9) | < 200 nM | < 12.6 nM | 0.53 | 230 % ID/g*h |  |  |  | 
6 | C[C@@H](O)[C@H](NC(=O)CC1CCN(C(=O)CN2CCN(CC(=O)O)CCN(CC(=O)O)CCN(CC(=O)O)CC2)CC1)C(=O)NC(C)(C)C(=O)N[C@@H](Cc1ccc(Cl)cc1)C(=O)N[C@H]1CSSC[C@@H](C(=O)N[C@H](C(=O)NCCN)C(C)(C)C)NC(=O)[C@H](CC(N)=O)NC(=O)C(C)(C)NC(=O)[C@H](CCCNC(=N)N)NC(=O)[C@H](CCCCN)NC1=O [PSM-0384, DOTA-Cmp-Thr-Aib-Pcf-[Cys-Lys-Arg-Aib-Asn-Cys]-Tle-en] ({DOTA}-[X1]T[Aib][Phe(4-Cl)]CKR[Aib]NC[Tle]-Ethylenediamine; disulfide 5-10) | < 200 nM | < 12.6 nM | 0.30 | 220 % ID/g*h |  |  |  | 
7 | C[C@@H](O)[C@H](NC(=O)CC1CCN(C(=O)CN2CCN(CC(=O)O)CCN(CC(=O)O)CCN(CC(=O)O)CC2)CC1)C(=O)NC(C)(C)C(=O)N[C@@H](Cc1ccccc1)C(=O)N[C@H]1CSSC[C@@H](C(=O)N[C@H](C(N)=O)C(C)(C)C)NC(=O)[C@H](CC(N)=O)NC(=O)C(C)(C)NC(=O)[C@H](CCCNC(=N)N)NC(=O)[C@H](CCCCN)NC1=O [PSM-0361, DOTA-Cmp-Thr-Aib-Phe-[Cys-Lys-Arg-Aib-Asn-Cys]-Tle-NH2] ({DOTA}-[X1]T[Aib]FCKR[Aib]NC[Tle]-NH2; disulfide 5-10) |  |  | 0.85 | 110 % ID/g*h | < 200 nM | < 12.6 nM |  | 
8 | C[C@@H](O)[C@H](NC(=O)[C@@H](NC(=O)[C@@H]1CSSC[C@H](NC(=O)[C@H](Cc2ccc(Cl)cc2)NC(=O)C(C)(C)NC(=O)c2ccc(CNC(=O)CN3CCN(CC(=O)O)CCN(CC(=O)O)CCN(CC(=O)O)CC3)cc2)C(=O)N[C@@H](CCCCN)C(=O)N[C@@H](CCCNC(=N)N)C(=O)NC(C)(C)C(=O)N[C@@H](CC(N)=O)C(=O)N1)C(C)(C)C)C(N)=O [PSM-0283, DOTA-Pamb-Aib-Pcf-[Cys-Lys-Arg-Aib-Asn-Cys]-Tle-Thr-NH2] ({DOTA-4Amb}-[Aib][Phe(4-Cl)]CKR[Aib]NC[Tle]T-NH2; disulfide 3-8) |  |  | 1.6 | 200 % ID/g*h | < 200 nM | < 12.6 nM |  | 
9 | CCNC(=O)NC(=N)NCCC[C@@H]1NC(=O)[C@H](CCCCN)NC(=O)[C@@H](NC(=O)[C@H](Cc2ccc(Cl)cc2)NC(=O)C(C)(C)NC(=O)[C@@H](NC(=O)CC2CCN(C(=O)CN3CCN(CC(=O)O)CCN(CC(=O)O)CCN(CC(=O)O)CC3)CC2)[C@@H](C)O)CSSC[C@@H](C(=O)N[C@H](C(=O)N[C@H](C(N)=O)[C@@H](C)O)C(C)(C)C)NC(=O)[C@H](CC(N)=O)NC(=O)C(C)(C)NC1=O [PSM-0579, DOTA-Cmp-Thr-Aib-Pcf-[Cys-Lys-Arg(EtCAyl)-Aib-Asn-Cys]-Tle-Thr-NH2] ({DOTA}-[X1]T[Aib][Phe(4-Cl)]CKR([CO-NHEt])[Aib]NC[Tle]T-NH2; disulfide 5-10) |  |  | 0.6 | 110 % ID/g*h |  |  | < 200 nM | < 12.6 nM
10 | C[C@@H](O)[C@H](NC(=O)[C@@H](NC(=O)[C@@H]1CSSC[C@H](NC(=O)[C@H](Cc2ccc(Cl)cc2)NC(=O)C(C)(C)NC(=O)[C@@H](NC(=O)CN2CCN(CC(=O)O)CCN(CC(=O)O)CCN(CC(=O)O)CC2)[C@@H](C)O)C(=O)N[C@@H](CCCCN)C(=O)N[C@@H](CCCNC(=N)N)C(=O)NC(C)(C)C(=O)N[C@@H](CC(N)=O)C(=O)N1)C(C)(C)C)C(N)=O [PSM-0573, DOTA-Thr-Aib-Pcf-[Cys-Lys-Arg-Aib-Asn-Cys]-Tle-Thr-NH2] ({DOTA}-T[Aib][Phe(4-Cl)]CKR[Aib]NC[Tle]T-NH2; disulfide 4-9) |  |  | 1.1 | 160 % ID/g*h |  |  | < 200 nM | < 12.6 nM
